We go through one molecule from paper PMC3472974, “The Bite of the Honeybee: 2-Heptanone Secreted from Honeybee Mandibles during a Bite Acts as a Local Anaesthetic in Insects and Mammals” (PLoS ONE, 2012).

A word on the IC50: it is the midpoint of a concentration-inhibition curve.

For one data set, the target named is T1, hNav1.6 channels (Homo sapiens, UniProt Q9UQD0).
T1 construct: expressed in transfected cells; host or cells: CHO-K1 (ATCC CCL-61)
The data set is described as follows: Patch-clamp (PatchXpress 7000A) on transfected CHO cells, hNav1.6. In kind it is cell-based. The note with it: for IC50: CHO cells, n = 6, mean ± SEM, 2-H exposure limited to 3 min, read-out: hNav1.6 IC50 (converted); for times less active than lidocaine: hNav1.6. The text has this: To test whether 2-H can act by blocking VGNaCs, the PatchXpress 7000A was used. Mammalian CHO (Chinese hamster ovary) transfected with ion hNav1.2 and hNav1.6 channels cDNAs (SCN2A and SCN8A genes) were exposed to 2-H under both tonic and phasic conditions. The mammalian CHO-K1 epithelial embryonic cell line (ATCC number CCL-61) from Cricetulus griseus was obtained from ATCC, Manassas, VA. CHO-K1 cells were transfected with either hNav1.2 or hNav1.6 channel cDNA (SCN2A and SCN8A genes, respectively) and were exposed to 2-H under both tonic and phasic conditions.
The effects of 2-H were evaluated on hNav1.2 at 0.73, 1.46, 2.19, and 2.92 mg/mL and on hNav1.6 channels at 0.1, 0.36, 0.73, and 1.46 mg/mL, with each concentration tested in at least six cells (n = 6). Cells were exposed to each concentration of 2-H and measurements of the inward current were obtained within the first 3 min of exposure. […] Since the PatchXpress has open cell chambers where the testing occurs, there is no way to hermetically seal the experiment.
Based on this analysis, we estimated the IC50.
In general terms: Patch clamp records ionic current or voltage across a cell membrane.

A further data set has as its system Varroa destructor. Description: Gravitational reflex of Varroa mites after topical application. It counts as in vivo. The procedure: We tested 2-H on a far smaller arthropod that parasitizes honeybees, the mite, Varroa destructor. When 0.025 µL of 2-H was applied topically to the sternum of mites (n = 10) fixed ventral side up, the gravitational reflex–the rhythmic expansion of the thorax and abdomen [15]–was distorted (Fig. 3d). When the concentration was increased to 0.061 µL, the gravitational reflex completely malfunctioned and the Varroa mites (n = 10) were totally paralysed within 30–40 s (Fig. 3e) with no recovery, even after 12 h of observation. We applied larger concentrations of 2-H to the Varroa mites topically because the mites’ small size made it impossible to inject 2-H into the haemolymph.

The test system of another data set is wax moth larvae (WML). The data set is described as follows: GC-MS quantification of 2-H in wax moth larvae bitten by honeybees. It counts as in vivo, Galleria mellonella. The note with it: extracted after full recovery, n = 10. The text has this:
We measured the 2-H content of the following types of samples: a) isolated honeybee mandibular glands (n = 30); b) wax moth larvae (WML; body weight of around 0.01 g) that had been bitten by honeybees (n = 30) –2-H extracted immediately after paralysis; c) WML that had been bitten by honeybees (n = 10) –2-H extracted after full recovery; d) non-bitten WML (controls, n = 10).
To optimize the detection of 2-H, all samples were 1) treated with liquid nitrogen in order to stop any enzymatic process and ensure complete lyses of cell walls and then 2) extracted with ethanol. The extracts were centrifuged, filtered, and stored at −20°C until analysis.
Chromatographic analyses were carried out on a Hewlett Packard 6890 gas chromatographic model hyphenated to a Hewlett Packard 5973 mass selective detector using electron impact (70 eV) as the ionization source, further equipped with an Agilent 6890 autosampler. An HP 5MS (30 m×0.25 mm; film thickness 0.25 µm) column was used for the separations. Helium was used as the carrier gas (flow 0.8 ml/min). […] Thus, under the above chromatographic conditions, the Rt of 2-H was 8.47 min and the ions monitored at EI (70eV, full scan) were m/z 43, 58, 71, 85, 99 and 114. Quantification, however, was performed at Selected Ion Monitoring (SIM) mode and the ions were monitored at m/z 58 and 71. […]

Read-outs that look alike come from different tables or passages of the source.

T1 sequence (Q9UQD0 whole entry): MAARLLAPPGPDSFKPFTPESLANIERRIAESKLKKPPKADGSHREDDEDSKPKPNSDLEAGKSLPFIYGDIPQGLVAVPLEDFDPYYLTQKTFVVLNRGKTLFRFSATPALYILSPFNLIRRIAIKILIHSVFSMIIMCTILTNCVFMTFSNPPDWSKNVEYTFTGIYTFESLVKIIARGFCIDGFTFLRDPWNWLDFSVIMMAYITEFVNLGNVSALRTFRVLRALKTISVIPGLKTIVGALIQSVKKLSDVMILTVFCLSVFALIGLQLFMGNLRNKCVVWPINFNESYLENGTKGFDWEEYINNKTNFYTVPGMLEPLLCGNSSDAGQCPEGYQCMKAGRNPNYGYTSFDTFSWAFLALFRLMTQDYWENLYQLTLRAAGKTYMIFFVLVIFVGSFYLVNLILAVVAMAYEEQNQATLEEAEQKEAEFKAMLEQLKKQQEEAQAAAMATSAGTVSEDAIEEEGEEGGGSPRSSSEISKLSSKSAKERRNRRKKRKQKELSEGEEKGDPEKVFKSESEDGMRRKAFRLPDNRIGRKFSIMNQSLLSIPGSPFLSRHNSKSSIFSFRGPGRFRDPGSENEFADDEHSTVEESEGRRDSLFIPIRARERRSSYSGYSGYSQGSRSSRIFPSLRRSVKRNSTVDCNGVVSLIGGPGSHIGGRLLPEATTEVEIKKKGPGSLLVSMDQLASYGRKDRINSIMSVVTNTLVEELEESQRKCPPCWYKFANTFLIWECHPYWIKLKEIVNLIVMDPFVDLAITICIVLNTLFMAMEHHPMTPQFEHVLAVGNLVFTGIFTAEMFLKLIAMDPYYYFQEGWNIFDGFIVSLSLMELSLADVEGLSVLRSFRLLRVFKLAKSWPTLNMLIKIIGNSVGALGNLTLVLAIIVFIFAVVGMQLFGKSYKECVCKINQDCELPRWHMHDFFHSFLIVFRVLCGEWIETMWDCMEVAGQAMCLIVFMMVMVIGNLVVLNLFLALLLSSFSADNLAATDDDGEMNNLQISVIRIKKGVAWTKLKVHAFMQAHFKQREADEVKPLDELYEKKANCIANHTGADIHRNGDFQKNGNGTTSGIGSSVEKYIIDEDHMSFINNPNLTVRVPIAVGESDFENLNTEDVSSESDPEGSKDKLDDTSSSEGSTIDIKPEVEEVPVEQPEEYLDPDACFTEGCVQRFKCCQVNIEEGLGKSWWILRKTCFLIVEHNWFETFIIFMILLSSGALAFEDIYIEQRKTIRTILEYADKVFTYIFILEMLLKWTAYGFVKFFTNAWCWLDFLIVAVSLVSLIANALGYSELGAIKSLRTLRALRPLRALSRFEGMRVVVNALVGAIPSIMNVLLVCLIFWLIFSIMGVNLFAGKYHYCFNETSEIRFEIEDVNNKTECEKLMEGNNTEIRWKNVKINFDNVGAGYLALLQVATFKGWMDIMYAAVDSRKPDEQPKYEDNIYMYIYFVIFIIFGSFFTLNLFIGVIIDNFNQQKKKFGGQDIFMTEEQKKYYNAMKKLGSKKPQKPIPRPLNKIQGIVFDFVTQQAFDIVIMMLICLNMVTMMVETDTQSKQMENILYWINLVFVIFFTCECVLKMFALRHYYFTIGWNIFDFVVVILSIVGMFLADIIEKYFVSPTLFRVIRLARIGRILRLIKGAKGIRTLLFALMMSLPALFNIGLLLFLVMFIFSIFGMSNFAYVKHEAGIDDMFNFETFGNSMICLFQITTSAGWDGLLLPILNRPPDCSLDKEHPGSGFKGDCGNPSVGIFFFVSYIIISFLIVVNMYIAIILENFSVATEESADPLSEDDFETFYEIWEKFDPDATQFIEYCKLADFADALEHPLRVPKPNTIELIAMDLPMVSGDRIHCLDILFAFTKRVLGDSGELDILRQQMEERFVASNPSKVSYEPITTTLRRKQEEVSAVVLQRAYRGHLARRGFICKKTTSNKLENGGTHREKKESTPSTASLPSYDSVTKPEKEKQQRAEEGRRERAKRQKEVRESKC

Consider `CCCCCC(C)=O` [2-H, 2-heptanone], for which the values for the IC50 at hNav1.6 channels (Phasic Experiment) and on hNav1.6 channels (Tonic Experiment) were 4.64 mM and 7.18 mM, respectively. Besides, the figures for the “times less active than lidocaine” value at hNav1.6 channels (phasic experiments) and on hNav1.6 channels (tonic experiments) were 7.57 times and 2.82 times, respectively. In addition, the “effect on gravitational reflex” value in the data set with Varroa destructor (0.025 µL applied topically to the sternum, n = 10) is listed as “distorted”. Further, the recovery from paralysis entry in the data set on Varroa destructor (0.061 µL applied topically, 12 h of observation) is recorded as “no recovery”. In addition, the “2-H detected in fully-recovered WML” value in the data set with wax moth larvae (WML) was “no 2-H”.
